Key:
Protease [1] = biological target: Protease (Human immunodeficiency virus 1, UniProt Q9YQ12, I84V); test: Inhibition of HIV1 NL4-3 protease I84V mutant expressed in Escherichia coli TAP-106 cells using EDANS/DABCYL-labelled 10-amino acid containing protease cleavage site as substrate preincubated for 1 hr followed by substrate addition and measured for 60 mins by FRET assay
[2] = biological target: Human immunodeficiency virus type 1 protease (Human immunodeficiency virus 1, UniProt Q72874); test: Inhibition of HIV1 NL4-3 protease expressed in Escherichia coli TAP-106 cells using EDANS/DABCYL-labelled 10-amino acid containing protease cleavage site as substrate preincubated for 1 hr followed by substrate addition and measured for 60 mins by FRET assay
[3] = test system: Human immunodeficiency virus 1; test: Antiviral activity against wild-type HIV1 NL4-3 infected in human TZM-bl cells infected with supernatants from virus-infected human 293T cells treated with compound for 18 hrs assessed as reduction in viral replication by luciferase assay; assay type: functional, organism-based; conditions: Human immunodeficiency virus 1, NL4-3, 18 h
Protease [4] = biological target: Protease (Human immunodeficiency virus 1, UniProt Q9YQ12, A71V/I50V); test: Inhibition of HIV1 NL4-3 protease I50V/A71V mutant expressed in Escherichia coli TAP-106 cells using EDANS/DABCYL-labelled 10-amino acid containing protease cleavage site as substrate preincubated for 1 hr followed by substrate addition and measured for 60 mins by FRET assay
Sequence of Protease (Human immunodeficiency virus 1, UniProt Q9YQ12, A71V/I50V) (Q9YQ12 entry or part of it A71V/I50V): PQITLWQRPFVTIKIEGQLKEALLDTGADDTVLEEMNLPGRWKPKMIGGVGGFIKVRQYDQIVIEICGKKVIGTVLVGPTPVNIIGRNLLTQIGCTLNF

Sequence of Protease (Human immunodeficiency virus 1, UniProt Q9YQ12, I84V) (Q9YQ12 entry or part of it I84V): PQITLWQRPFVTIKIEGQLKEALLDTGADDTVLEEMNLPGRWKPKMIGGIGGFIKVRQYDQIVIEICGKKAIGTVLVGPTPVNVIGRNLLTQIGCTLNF

## COC(=O)N[C@H](C(=O)N[C@@H](Cc1ccccc1)C[C@H](O)[C@H](Cc1ccccc1)NC(=O)O[C@H]1CO[C@H]2OCC[C@H]21)C(C)(C)C
Protease [1]
  Ki: 372 pM
[2]
  Ki: 13 pM
[3]
  EC50: 39000 pM
Protease [4]
  Ki: 72 pM

## COC(=O)N[C@H](C(=O)N[C@@H](Cc1ccccc1)[C@@H](O)C[C@H](Cc1ccccc1)NC(=O)O[C@H]1CO[C@H]2OCC[C@H]21)C1CCCC1
Protease [1]
  Ki: 710 pM
[2]
  Ki: 235 pM
Protease [4]
  Ki: 2350 pM

## COC(=O)NC1(C(=O)N[C@@H](Cc2ccccc2)C[C@H](O)[C@H](Cc2ccccc2)NC(=O)O[C@H]2CO[C@H]3OCC[C@H]32)CCCC1
Protease [1]
  Ki: 191000 pM
[2]
  Ki: 7300 pM
Protease [4]
  Ki: 40000 pM

## COC(=O)N[C@H](C(=O)N[C@@H](Cc1ccccc1)[C@@H](O)C[C@H](Cc1ccccc1)NC(=O)O[C@H]1CO[C@H]2OCC[C@H]21)C(C)(C)C
Protease [1]
  Ki: 208 pM
[2]
  Ki: 18 pM
[3]
  EC50: 11000 pM
Protease [4]
  Ki: 273 pM

## CC[C@H](C)[C@H](NC(=O)OC)C(=O)N[C@@H](Cc1ccccc1)[C@@H](O)C[C@H](Cc1ccccc1)NC(=O)O[C@H]1CO[C@H]2OCC[C@H]21
Protease [1]
  Ki: 198 pM
[2]
  Ki: 55 pM
[3]
  EC50: 70000 pM
Protease [4]
  Ki: 560 pM

## COC(=O)N[C@H](C(=O)N[C@@H](Cc1ccccc1)C[C@H](O)[C@H](Cc1ccccc1)NC(=O)O[C@H]1CO[C@H]2OCC[C@H]21)C1CCCC1
Protease [1]
  Ki: 1180 pM
[2]
  Ki: 161 pM
Protease [4]
  Ki: 1390 pM

## COC(=O)N[C@H](C(=O)N[C@@H](Cc1ccccc1)[C@@H](O)C[C@H](Cc1ccccc1)NC(=O)O[C@H]1CO[C@H]2OCC[C@H]21)C(C)C
Protease [1]
  Ki: 302 pM
[2]
  Ki: 74 pM
[3]
  EC50: 55000 pM
Protease [4]
  Ki: 295 pM

## COC(=O)N[C@H](C(=O)N[C@@H](Cc1ccccc1)[C@@H](O)C[C@H](Cc1ccccc1)NC(=O)O[C@H]1CO[C@H]2OCC[C@H]21)C1CC1
Protease [1]
  Ki: 1820 pM
[2]
  Ki: 571 pM
Protease [4]
  Ki: 1660 pM

## COC(=O)NC1(C(=O)N[C@@H](Cc2ccccc2)[C@@H](O)C[C@H](Cc2ccccc2)NC(=O)O[C@H]2CO[C@H]3OCC[C@H]32)CCCC1
Protease [1]
  Ki: 236000 pM
[2]
  Ki: 46000 pM
Protease [4]
  Ki: 484000 pM

## CC[C@@H](C)[C@H](NC(=O)OC)C(=O)N[C@@H](Cc1ccccc1)[C@@H](O)C[C@H](Cc1ccccc1)NC(=O)O[C@H]1CO[C@H]2OCC[C@H]21
Protease [1]
  Ki: 91 pM
[2]
  Ki: 27 pM
[3]
  EC50: 240000 pM
Protease [4]
  Ki: 29 pM

## Cc1cccc(C)c1OCC(=O)N[C@@H](Cc1ccccc1)C[C@H](O)[C@H](Cc1ccccc1)NC(=O)O[C@H]1CO[C@H]2OCC[C@H]21
Protease [1]
  Ki: 259 pM
[2]
  Ki: 37 pM
[3]
  EC50: 16000 pM

## Cc1cccc(C)c1OCC(=O)N[C@@H](Cc1ccccc1)[C@@H](O)C[C@H](Cc1ccccc1)NC(=O)[C@H](C(C)C)N1CCCNC1=O [LOPINAVIR]
[3]
  EC50: 12000 pM

## Cc1cccc(C)c1OCC(=O)N[C@@H](Cc1ccccc1)[C@@H](O)C[C@H](Cc1ccccc1)NC(=O)O[C@H]1CO[C@H]2OCC[C@H]21
Protease [1]
  Ki: 69 pM
[2]
  Ki: 17 pM
[3]
  EC50: 38000 pM
Protease [4]
  Ki: 72 pM

## COC(=O)N[C@@H](C)C(=O)N[C@@H](Cc1ccccc1)[C@@H](O)C[C@H](Cc1ccccc1)NC(=O)O[C@H]1CO[C@H]2OCC[C@H]21
Protease [1]
  Ki: 69 pM
[2]
  Ki: 19 pM
[3]
  EC50: 66000 pM
Protease [4]
  Ki: 73 pM

From ChEMBL document CHEMBL4627412
